# Literature values in patent US20100303877A1, “Controlled Release Hydrogel Films” (Board of Regents, The University of Texas System, priority 2009, published 2010).
# Tested on: mammalian cells
compound,measurement,value
"[Ag+] [Ag^+, silver ions]",silver ion concentration above which cytotoxicity occurs,> 10 mg per liter
